Assay results reported in ChEMBL document CHEMBL3507680, “University of Dundee, Gates Library screen for HepG2 cell viability”.

Assay: Human HepG2 cell viability assay in 384 well format
Assay type: toxicity, cell-based
Set-up: dose 125 nL, time 70.5 hour; concentration not given beside the values
Conditions: HepG2 cells, read-out: Inhibition

Row | Compound | cytotoxicity at 70.5 h [%]
1 | Cc1nnc(NCC(c2ccco2)N(C)C)c(C#N)c1C (configuration not stated) | -4.51
2 | Cc1noc(C)c1C(=O)NCCN1CCN(S(C)(=O)=O)CC1 | -1.17
3 | CCNC(=O)NC(=O)CNc1cc(C(=O)OC)cc(C(F)(F)F)c1 | -3.94
4 | CC(Cc1c(F)cccc1F)NC(=O)CN(CC(N)=O)C(C)C (configuration not stated) | -2.04
5 | N#Cc1cnc(NC2CCN(C(=O)C3CC3)CC2)c(Cl)c1 | 0.703
6 | CC(=O)N1CCN(c2nc3c(cnn3C(C)(C)C)c(=O)[nH]2)CC1 | -1.03
7 | CNC(=O)NC(=O)CNc1cc(C(=O)OC)cc(C(F)(F)F)c1 | 1.77
8 | CN1CCCN(c2nc3c(cnn3C(C)(C)C)c(=O)[nH]2)CC1 | 16.5
9 | CC(C)(C)n1ncc2c(=O)[nH]c(N3CCN(CCO)CC3)nc21 | -1.33
10 | CC(C)C(O)CNC(=O)Nc1cccc(-c2nccs2)c1 (configuration not stated) | -3.11
11 | COc1ccc(CNC(Cn2cncn2)c2ccccc2)cc1O (configuration not stated) | -0.077
12 | N#Cc1ccc(F)c(CN(CC(=O)N2CCCC2)CC2CCCO2)c1 (configuration not stated) | 0.0703
13 | N#Cc1c(Cl)nsc1NCc1ccc(N2CCCC(C(N)=O)C2)cc1 (configuration not stated) | -2.18
14 | Cc1cn2c(CN(C)C(=O)c3nccnc3N)c(C)nc2s1 | 0.596
15 | COc1ccccc1CNC(Cn1cncn1)c1ccccc1 (configuration not stated) | -2.53
16 | Cc1ccoc1C(=O)N1CCOC2(CCCC2)C1 | -2.84
17 | COc1cc(C(C)NCc2cscn2)ccc1SC(F)F (configuration not stated) | 30.9
18 | CCC1CCCCN1CCc1ccncc1 (configuration not stated) | 29.9
19 | CCC(=O)NCc1ccccc1Cn1ccnc1 | -2.6
20 | NC(=O)C1CCN(C(=O)NCc2ccccc2Cn2ccnc2)CC1 | -6.43
21 | O=C(NCc1ccccc1Cn1ccnc1)N1CCSCC1 | -6.06
22 | COc1cc(C(C)=O)ccc1OCC(=O)N(Cc1ccsc1)C1CC1 | -12

Row | Compound | cytotoxicity at 70.5 h [%]
23 | COCCN1CCC(NC(=O)Nc2cccc(F)c2)C1 (configuration not stated) | -0.696
24 | O=C(NCCc1ccn(-c2ccc(F)cc2)n1)C1CCCOC1 (configuration not stated) | -1.01
25 | Cc1cc(Nc2ccc3c(c2)CC(=O)N3)nc(C(C)C)n1 | -6.82
26 | Cc1cc(Nc2ccc3c(c2)CC(=O)N3)nc(C2CC2)n1 | -9.05
27 | CC1CN(C(=O)NCc2ccn(C)c2)CCN1CC(F)(F)F (configuration not stated) | 32.3
28 | COc1ccc(OC)c(CCNC(=O)CCC2CCCO2)c1 (configuration not stated) | -10
29 | COCCN1CCC(NC(=O)NCC2(c3ccccc3)CC2)C1 (configuration not stated) | -9.2
30 | COc1cc(C(C)=O)ccc1OCC(=O)N(CC(C)C#N)C1CC1 (configuration not stated) | -7.18
31 | Cc1cc(C2CCCN(Cc3ncc(C)o3)C2)n[nH]1 (configuration not stated) | -10.2
32 | c1cc(CCN2CCCC2CN2CCCCC2)ccn1 (configuration not stated) | 25.4
33 | CCc1ncc(C(=O)N2CCOCC2CC(=O)c2ccccc2)s1 (configuration not stated) | -5.53
34 | O=C(c1cnc(NCC2CCCO2)c(Cl)c1)N1CCOCC1 (configuration not stated) | -9.69
35 | Cc1cnn(CCNCc2cc(-c3ccccc3)no2)c1 | 7.59
36 | CC(C1CC1)N(C)Cc1nnc(-c2ccco2)o1 (configuration not stated) | 1.08
37 | CSc1ccc(C(C)NC(=O)c2cc(C)on2)cc1 (configuration not stated) | -4.63
38 | Cc1cc(C(=O)NC2CCN(c3ncccc3C#N)CC2)on1 | -6.25
39 | CCC1CN(C(=O)Cc2coc(-c3ccccc3)n2)CCO1 (configuration not stated) | -3.32
40 | Cc1nc2cc(=O)[nH]n2c(C)c1CC(=O)Nc1cnn(C)c1 | 0.718
41 | CC(C)CN(Cc1nnc(-c2ccco2)o1)CC(C)C | 2.87
42 | CCOC(=O)c1nnc2ccccc2c1N1CCN(CC)CC1 | -7.65
43 | Cc1cn2c(n1)CCC(NS(=O)(=O)c1sc(C)nc1C)C2 (configuration not stated) | 3.5
44 | CC1CCC(O)(Cn2ncnc2-c2cccc(C#N)c2)CC1 (configuration not stated) | -5.94

Row | Compound | cytotoxicity at 70.5 h [%]
45 | CC1CCCN(Cc2ccc(CNC(=O)NCc3ccon3)cc2)C1 (configuration not stated) | 2.37
46 | COc1cccc(CN2CCCC2c2ccc[nH]2)c1 (configuration not stated) | 0.927
47 | CN(Cc1ccsc1)C(=O)Cn1c(CS(C)(=O)=O)nc2ccccc21 | -1.3
48 | COCCN1CCCN(C(=O)c2scnc2C)CC1 | -3.53
49 | Cc1ccc(C(=O)N(C)Cc2csc(C)n2)c(=O)[nH]1 | 1.68
50 | Cc1ccc(C(=O)N(C)Cc2ccc(Br)o2)c(=O)[nH]1 | -2.83
51 | CC(C)N(C)CC(=O)NCC(Cc1ccc(F)cc1)C(N)=O (configuration not stated) | 1.22
52 | CCC(CC)C(=O)NCCC(=O)N1CCN(c2ccccn2)CC1 | 2.35
53 | NC(=O)C(CNC(=O)CCc1ccsc1)Cc1ccc(F)cc1 (configuration not stated) | 21
54 | Cc1ccc(C(=O)N(C)Cc2csc(Br)c2)c(=O)[nH]1 | 1.57
55 | CCn1cnnc1C1CCN(C(=O)c2cnn(C(C)(C)C)c2)CC1 | -5.89
56 | CSC(C)C(=O)NCCC(=O)N1CCN(c2ccccn2)CC1 (configuration not stated) | -3.28
57 | Cc1ccc(CC(=O)NCC(Cc2ccc(F)cc2)C(N)=O)cn1 (configuration not stated) | -0.982
58 | CC(C)c1cc(C(=O)N2CCOCC2CC(=O)c2ccco2)nn1C (configuration not stated) | -0.209
59 | Cc1ccc(NCCNC(=O)c2cc(CC(C)C)n[nH]2)nn1 | 4.32
60 | CCN1CCN(C(=O)c2scnc2C)CC1 | 18.9
61 | Cc1ncsc1C(=O)N1CCN(CCC(C)C)CC1 | -6.29
62 | COCCOCC(=O)Nc1ccccc1F | -6.23
63 | COCCCN(CCOC)C(=O)Nc1ccc(Br)cc1 | -7.21
64 | CN(CCS(C)(=O)=O)C1CCCN(Cc2noc(C3CC3)n2)C1 (configuration not stated) | 17.9
65 | Cc1cccc(NC(=O)c2sc(C)nc2C)n1 | -11.8
66 | CCc1noc(C(C)N2CCN(CC(=O)N3CCOCC3)CC2)n1 (configuration not stated) | -4.7

Row | Compound | cytotoxicity at 70.5 h [%]
67 | Cc1ccc(CNC2CCc3nc(C(C)C)nn3C2)o1 (configuration not stated) | -4.86
68 | CCn1cnnc1C1CCN(C(=O)c2ccnc(N(C)C)c2)CC1 | -8.14
69 | O=C(CN1CCCC1Cn1cncn1)Nc1nncs1 (configuration not stated) | 14.3
70 | Cc1nc(C)n(CC2CCCN2CC(=O)Nc2cccnc2)n1 (configuration not stated) | -0.954
71 | O=C(CN1CCCC(Cn2cncn2)C1)Nc1cccnc1 (configuration not stated) | 0.545
72 | Cc1ccc(NC(=O)CNc2ccccc2C(N)=O)c(C)c1 | 2.06
73 | CCOc1ncccc1NC(=O)c1ccc(C(C)=O)s1 | -14.4
74 | CCOc1ncccc1NC(=O)c1cccs1 | -10.3
75 | CC(C)NC(=O)c1nnn(-c2ccc(F)cc2)c1C1CC1 | -4.05
76 | Cc1c(C(=O)NC(C)C)nnn1-c1cccc(C(F)(F)F)c1 | -4.53
77 | CNC(=O)COc1ccc(CNCc2cc(F)ccc2F)cc1 | -2.81
78 | CC(C)CN1CCC(NC(=O)c2ccc(F)cc2F)CC1 | 0.0411
79 | CN(Cc1cnn(C)c1)C(=O)NCC1CCS(=O)(=O)C1 (configuration not stated) | -4.43
80 | CCc1nnc2n1CCN(C(=O)c1ccc3cc[nH]c3c1)C2 | -4.35
81 | N#CCCCOc1cccnc1NC(=O)CC1CCCCC1 | 39.8
82 | CC(=O)NCCNC(=O)c1cccc(Cn2nc(C)cc2C)c1 | -1.57
83 | Cc1nc(-c2ccsc2)ccc1C(=O)N(C)CC(F)(F)F | -11.2
84 | N#CCCCOc1cccnc1NC(=O)Cc1ccccc1F | 0.586
85 | CCOc1ccc(C2CCCN2Cc2nnnn2C2CC2)cc1 (configuration not stated) | 0.0309
86 | COc1cccc(C2CCCN2Cc2nnnn2C2CC2)c1 (configuration not stated) | -3.76
87 | Cc1cnn(CC(C)NCc2nc(-c3ccccn3)no2)c1 (configuration not stated) | -7.46
